Columns and labels:
MOLM-13 = assay: Cell growth inhibition, MOLM-13 leukemia cells (CellTiter-Glo); assay type: cell-based; conditions: Homo sapiens, MOLM-13, 96 h; 4 days; read-out: IC50 (nM) MOLM-13 Cell Line (CellTiter-Glo assay)
Procedure, shortened: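 MOLM-13 leukemia cells treated with compounds; viability read by CellTiter-Glo luminescence after 10-20 min reagent incubation at room temperature. IC50 derived from luminescent signal.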

MDA-MB-436 = assay: Cell growth inhibition, MDA-MB-436 breast cancer cells (WST-8); assay type: cell-based; conditions: Homo sapiens, MDA-MB-436, 96 h; 4 days; read-out: IC50 (nM) MDA-MB-436 Cell Line (WST assay)
Procedure, shortened: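 IC50 was computed from WST-8-based cell counting in MDA-MB-436 cells, with absorbance read at 450 nm.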

recombinant BRD4 BD1 = biological target: T1, recombinant BRD4 BD1 (Homo sapiens, UniProt O60885); assay: Competitive fluorescence-polarization (FP) binding assay, BRD4 BD1; conditions: competitive FP assay; protein 10 nM, probe […]; read-out: IC50 (nM) BRD4 BD1; also: probe 1.5 nM
T1 construct: for recombinant BRD4 BD1 and BRD4 BD2 proteins
Procedure, shortened: (§1)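 FP competition with FAM-labelled probe (ZBA248 or BRD-1F) against preincubated protein/probe complex; BD1 at 10 nM and BD2 at 6 nM final, in 100 mM potassium phosphate pH 6.5, 0.01% Triton X-100. 30 min, room temperature. IC50 by nonlinear regression; Ki also derived, using probe Kd from protein saturation.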

recombinant BRD4 BD2 = biological target: T2, recombinant BRD4 BD2 (Homo sapiens, UniProt O60885); assay: Competitive fluorescence-polarization (FP) binding assay, BRD4 BD2; conditions: competitive FP assay; protein 6 nM, probe […]; read-out: IC50 (nM) BRD4 BD2; also: probe 1.5 nM
T2 construct: for recombinant BRD4 BD1 and BRD4 BD2 proteins
Procedure, shortened: as §1

SMILES	IC50 (MOLM-13) [nM]	IC50 (MDA-MB-436) [nM]	IC50 (recombinant BRD4 BD1) [nM]	IC50 (recombinant BRD4 BD2) [nM]
COc1cc2c(cc1-c1c(C)noc1C)[nH]c1nc(C)nc(Nc3cc(C)nn3C3CC3)c12 [Cpd. No. 192, N-(1-cyclopropyl-3-methyl-1H-pyrazol-5-yl)-7-(3,5-dimethylisoxazol-4-yl)-6-methoxy-2-methyl-9H-pyrimido[4,5-b]indol-4-amine]	114	422	30.1	114
COc1cc2c(cc1-c1c(C)noc1C)[nH]c1nc(C)nc(Nc3cn(C)nc3C(C)(C)C)c12 [Cpd. No. 193, N-(3-(tert-butyl)-1-methyl-1H-pyrazol-4-yl)-7-(3,5-dimethylisoxazol-4-yl)-6-methoxy-2-methyl-9H-pyrimido[4,5-b]indol-4-amine]	8.1	47.5	3.6	2.7
COc1cc2c(cc1-c1c(C)noc1C)[nH]c1nc(C)nc(Nc3c(C(C)C)nn(C)c3C)c12 [Cpd. No. 194, 7-(3,5-dimethylisoxazol-4-yl)-N-(3-isopropyl-1,5-dimethyl-1H-pyrazol-4-yl)-6-methoxy-2-methyl-9H-pyrimido[4,5-b]indol-4-amine]	13.2	59.6	10.1	14.2
COc1cc2c(cc1-c1c(C)noc1C)[nH]c1nc(C)nc(Nc3cn(C)nc3C3CC3)c12 [Cpd. No. 195, N-(3-cyclopropyl-1-methyl-1H-pyrazol-4-yl)-7-(3,5-dimethylisoxazol-4-yl)-6-methoxy-2-methyl-9H-pyrimido[4,5-b]indol-4-amine]	29.1	75.1	16.6	14.4
COc1cc2c(cc1-c1c(C)noc1C)[nH]c1nc(C)nc(Nc3c(C)cnn3C(C)(C)C)c12 [Cpd. No. 196, N-(1-(tert-butyl)-4-methyl-1H-pyrazol-5-yl)-7-(3,5-dimethylisoxazol-4-yl)-6-methoxy-2-methyl-9H-pyrimido[4,5-b]indol-4-amine]	32.7	52.5	10	7.5
COc1cc2c(cc1-c1c(C)noc1C)[nH]c1nc(C)nc(Nc3c(C)cnn3C3CC3)c12 [Cpd. No. 197, N-(1-cyclopropyl-4-methyl-1H-pyrazol-5-yl)-7-(3,5-dimethylisoxazol-4-yl)-6-methoxy-2-methyl-9H-pyrimido[4,5-b]indol-4-amine]	357	511	70.1	69.9
COc1cc2c(cc1-c1c(C)noc1C)[nH]c1nc(C)nc(Nc3c(C)cnn3C3CCC3)c12 [Cpd. No. 198, N-(1-cyclobutyl-4-methyl-1H-pyrazol-5-yl)-7-(3,5-dimethylisoxazol-4-yl)-6-methoxy-2-methyl-9H-pyrimido[4,5-b]indol-4-amine]	25.7	58.7	6.9	3.6
CCn1cc(Nc2nc(C)nc3[nH]c4cc(-c5c(C)noc5C)c(OC)cc4c23)c(C(C)C)n1 [Cpd. No. 199, 7-(3,5-dimethylisoxazol-4-yl)-N-(1-ethyl-3-isopropyl-1H-pyrazol-4-yl)-6-methoxy-2-methyl-9H-pyrimido[4,5-b]indol-4-amine]	30.5	67.9	13.3	14.5
COc1cc2c(cc1-c1c(C)noc1C)[nH]c1nc(C)nc(Nc3cn(C)nc3C3CCC3)c12 [Cpd. No. 200, N-(3-cyclobutyl-1-methyl-1H-pyrazol-4-yl)-7-(3,5-dimethylisoxazol-4-yl)-6-methoxy-2-methyl-9H-pyrimido[4,5-b]indol-4-amine]	25.4	40	10.9	5.9
COc1cc2c(cc1-c1c(C)noc1C)[nH]c1nc(C)nc(Nc3c(C)noc3C)c12 [Cpd. No. 215, N-(7-(3,5-dimethylisoxazol-4-yl)-6-methoxy-2-methyl-9H-pyrimido[4,5-b]indol-4-yl)-3,5-dimethylisoxazol-4-amine]	318	360	128	57
COc1cc2c(cc1-c1c(C)noc1C)[nH]c1nc(C)nc(Nc3onc(C)c3C)c12 [Cpd. No. 219, N-(7-(3,5-dimethylisoxazol-4-yl)-6-methoxy-2-methyl-9H-pyrimido[4,5-b]indol-4-yl)-3,4-dimethylisoxazol-5-amine]	912	849	219	365
COc1cc2c(cc1-c1c(C)noc1C)[nH]c1nc(C)nc(Nc3noc(C)c3C)c12 [Cpd. No. 222, N-(7-(3,5-dimethylisoxazol-4-yl)-6-methoxy-2-methyl-9H-pyrimido[4,5-b]indol-4-yl)-4,5-dimethylisoxazol-3-amine]	629	731	183	276
COc1cc2c(cc1-c1c(C)noc1C)[nH]c1nc(C)nc(Nc3cc(F)cc(Cl)c3)c12 [Cpd. No. 225, N-(3-chloro-5-fluorophenyl)-7-(3,5-dimethylisoxazol-4-yl)-6-methoxy-2-methyl-9H-pyrimido[4,5-b]indol-4-amine]	189	315	213	108

Now from value to compound:

IC50 (MOLM-13) [nM]	IC50 (MDA-MB-436) [nM]	IC50 (recombinant BRD4 BD1) [nM]	IC50 (recombinant BRD4 BD2) [nM]	SMILES
76	57	16	17	COc1cc2c(cc1-c1c(C)noc1C)[nH]c1nc(C)nc(Nc3cccc4ncccc34)c12 [Cpd. No. 211, 7-(3,5-dimethylisoxazol-4-yl)-6-methoxy-2-methyl-N-(quinolin-5-yl)-9H-pyrimido[4,5-b]indol-4-amine]
103	112	18	8	COc1cc2c(cc1-c1c(C)noc1C)[nH]c1nc(C)nc(Nc3cccc(C)c3)c12 [Cpd. No. 212, 7-(3,5-dimethylisoxazol-4-yl)-6-methoxy-2-methyl-N-m-tolyl-9H-pyrimido[4,5-b]indol-4-amine]
103	211	54	28	COc1cccc(Nc2nc(C)nc3[nH]c4cc(-c5c(C)noc5C)c(OC)cc4c23)c1 [Cpd. No. 213, 7-(3,5-dimethylisoxazol-4-yl)-6-methoxy-N-(3-methoxyphenyl)-2-methyl-9H-pyrimido[4,5-b]indol-4-amine]
208	249	855	348	COc1cc2c(cc1-c1c(C)noc1C)[nH]c1nc(C)nc(Nc3cccc(C(F)(F)F)c3)c12 [Cpd. No. 214, 7-(3,5-dimethylisoxazol-4-yl)-6-methoxy-2-methyl-N-(3-(trifluoromethyl)phenyl)-9H-pyrimido[4,5-b]indol-4-amine]
220	292	19	35	CCc1cccc(Nc2nc(C)nc3[nH]c4cc(-c5c(C)noc5C)c(OC)cc4c23)c1 [Cpd. No. 216, 7-(3,5-dimethylisoxazol-4-yl)-N-(3-ethylphenyl)-6-methoxy-2-methyl-9H-pyrimido[4,5-b]indol-4-amine]
498	1930	165	68	COc1cc2c(cc1-c1c(C)noc1C)[nH]c1nc(C)nc(Nc3cccc(Cl)c3F)c12 [Cpd. No. 217, N-(3-chloro-2-fluorophenyl)-7-(3,5-dimethylisoxazol-4-yl)-6-methoxy-2-methyl-9H-pyrimido[4,5-b]indol-4-amine]
37	72	17	9	COc1cc2c(cc1-c1c(C)noc1C)[nH]c1nc(C)nc(Nc3cccc4[nH]ccc34)c12 [Cpd. No. 220, 7-(3,5-dimethylisoxazol-4-yl)-N-(1H-indol-4-yl)-6-methoxy-2-methyl-9H-pyrimido[4,5-b]indol-4-amine]
189	209	49	57	COc1cc2c(cc1-c1c(C)noc1C)[nH]c1nc(C)nc(Nc3cccc4cnccc34)c12 [Cpd. No. 221, 7-(3,5-dimethylisoxazol-4-yl)-N-(isoquinolin-5-yl)-6-methoxy-2-methyl-9H-pyrimido[4,5-b]indol-4-amine]
115	152	47	55	COc1cc2c(cc1-c1c(C)noc1C)[nH]c1nc(C)nc(Nc3cccc4ccncc34)c12 [Cpd. No. 223, 7-(3,5-dimethylisoxazol-4-yl)-N-(isoquinolin-8-yl)-6-methoxy-2-methyl-9H-pyrimido[4,5-b]indol-4-amine]
192	740	105	33	COc1cc2c(cc1-c1c(C)noc1C)[nH]c1nc(C)nc(Nc3cc(Cl)ccc3F)c12 [Cpd. No. 224, N-(5-chloro-2-fluorophenyl)-7-(3,5-dimethylisoxazol-4-yl)-6-methoxy-2-methyl-9H-pyrimido[4,5-b]indol-4-amine]
94	91	21	20	COc1cc2c(cc1-c1c(C)noc1C)[nH]c1nc(C)nc(Nc3ccccc3)c12 [Cpd. No. 226, 7-(3,5-dimethylisoxazol-4-yl)-6-methoxy-2-methyl-N-phenyl-9H-pyrimido[4,5-b]indol-4-amine]

— US9580430B2, “9H-pyrimido[4,5-B]indoles and related analogs as BET bromodomain inhibitors” (THE REGENTS OF THE UNIVERSITY OF MICHIGAN, priority 2014, dated 2017)
